pIC50: −log10 of the molar value.

Assay [1] addresses T1, rat lens aldose reductase (Rattus norvegicus, UniProt P07943).
T1 construct: rat lens aldose reductase; from tissue; host or cells: rat lens
The assay is described as follows: inhibitory activity on rat lens aldose reductase (Experimental Example 1). Type of assay: biochemical. Conditions: pH 6.2, 10 mM DL-glyceraldehyde, 0.16 mM NADPH. As for the experimental part:
The inhibitory activities of hydantoin derivatives on rat lens aldose reductase were measured according to the procedure of Inagaki et al. (K. Inagaki et al., Arch. Biochem. Biophys., 216, 337 (1982)) with slight modifications. Assays were performed in 0.1M phosphate buffer (pH 6.2) containing 0.4M ammonium sulfate, 10 mM DL-glyceraldehyde, 0.16 mM nicotinamide adenine dinucleotide phosphate, reduced form (NADPH) and aldose reductase (0.010-0.016 units) in a total volume of 1.0 ml. To this mixture was added 10 μl of the solution of each hydantoin derivative to be tested, and the decrease in absorbance at 340 nm was measured with a spectrophotometer.
The concentrations of typical hydantoin derivatives of the present invention required to produce 50% inhibition are shown in table 1.

The subject of assay [2] is Streptozotocin-Diabetic Rats. The assay is described as follows: Hypoglycemic Effects in Streptozotocin-Diabetic Rats (Experimental Example 4). Type of assay: in vivo, rat (male Wistar). The settings on record: Rattus norvegicus; STZ-diabetic rats, 100 mg/kg oral, 6 hrs after administration; read-out: Lowering rate of serum glucose (%). As for the experimental part: Diabetic rats were produced according to the method of Junod et al. (A. Junod et al., J. Clin. Invest., 48, 2129 (1969)). Briefly, male Wistar rats were given 26.5 mg/kg of streptozotocin (STZ) intravenously. Four days later, the rats with serum glucose levels of between 400 and 500 mg/dl were used. After being fasted for 4 hrs, groups of 5 diabetic rats were orally administered with the compounds of the present invention or gliclazide in a dose of 100 mg/kg. Blood sample were collected from the orbital vein before and 6 hrs after the administration. Serum glucose levels were determined by the enzymatic method with an autoanalyzer (Cobas Fara®, Roche).

In assay [3] the target is T2, bovine lens aldose reductase (Bos taurus, UniProt P16116).
T2 construct: bovine lens aldose reductase preparation was used; from tissue; host or cells: bovine lens
The assay is described as follows: inhibitory activity on bovine lens aldose reductase (Experimental Example 2). Conditions: for pIC50: pH 6.2, 10 mM DL-glyceraldehyde, 0.16 mM NADPH; for potency compared with compound 13 and 15: in words. In kind it is biochemical. As for the experimental part: Assays were performed in 0.1M phosphate buffer (pH 6.2) containing 0.4M ammonium sulfate, 10 mM DL-glyceraldehyde, 0.16 mM nicotinamide adenine dinucleotide phosphate, reduced form (NADPH) and aldose reductase (0.010-0.016 units) in a total volume of 1.0 ml. To this mixture was added 10 μl of the solution of each hydantoin derivative to be tested, and the decrease in absorbance at 340 nm was measured with a spectrophotometer.

Consider `O=C1CN(S(=O)(=O)c2cc3ccccc3cc2Cl)C(=O)N1` [Compound 2, 1-(3-chloronaphthalen-2-ylsulfonyl)hydantoin], for which the negative logarithm of the IC50 (pIC50) (as a rule, −log10 of the IC50, conventionally taken in molar units) in assay [1] is 6.80.

In turn, `O=C1CN(S(=O)(=O)c2ccc3cc(Cl)ccc3c2)C(=O)N1` [Compound 4, 1-(6-chloronaphthalen-2-ylsulfonyl)hydantoin] showed a pIC50 in assay [1] of 6.85.

`O=C1CN(S(=O)(=O)c2ccc3ccc(Cl)cc3c2)C(=O)N1` [Compound 5, 1-(7-chloronaphthalen-2-ylsulfonyl)hydantoin] had a pIC50 in assay [1] of 6.41.

Turning to `O=C1CN(S(=O)(=O)c2ccc3cccc(Cl)c3c2)C(=O)N1` [Compound 6, 1-(8-chloronaphthalen-2-ylsulfonyl)hydantoin], in assay [1], the negative logarithm of the IC50 (pIC50) is 6.34.

`O=C1CN(S(=O)(=O)c2ccc3ccccc3c2Br)C(=O)N1` [Compound 8, 1-(1-bromonaphthalen-2-ylsulfonyl)hydantoin] had a pIC50 in assay [1] of 7.03.

Take `O=C1CN(S(=O)(=O)c2ccc3cc(Br)ccc3c2)C(=O)N1` [Compound 10, 1-(6-bromonaphthalen-2-ylsulfonyl)hydantoin]: the pIC50 in assay [1] was 6.77.

Turning to `O=C1CN(S(=O)(=O)c2ccc3c([N+](=O)[O-])cccc3c2)C(=O)N1` [Compound 11, 1-(5-nitronaphthalen-2-ylsulfonyl)hydantoin], the negative-log IC50 (pIC50) in assay [1] is 7.00.

`Cc1cc2ccccc2cc1S(=O)(=O)N1CC(=O)NC1=O` [Compound 12, 1-(3-methylnaphthalen-2-ylsulfonyl)hydantoin]: the pIC50 in assay [1] was 6.85.

In turn, `Cc1ccc2ccc(S(=O)(=O)N3CC(=O)NC3=O)cc2c1` [Compound 14, 1-(7-methylnaphthalen-2-ylsulfonyl)hydantoin] gave a negative logarithm of the IC50 (pIC50) in assay [1] of 6.46.

Regarding `O=C1CN(S(=O)(=O)c2cc3ccccc3s2)C(=O)N1` [Compound 16, 1-(benzo[b]thiophen-2-ylsulfonyl)hydantoin], the inhibition in vivo at 100 mg/kg in assay [2] came out at 33.5%. The compound also had a negative logarithm of the IC50 (pIC50) in assay [3] of 6.41.

With `O=C1CN(S(=O)(=O)c2sc3ccccc3c2Cl)C(=O)N1` [Compound 17, 1-(3-chlorobenzo[b]thiophen-2-yl-sulfonyl)hydantoin], in assay [3], the “potency compared with compound 13 and 15” value was “as potent as compound 13 and 15”; the pIC50 is 6.92.

Consider `O=C1CN(S(=O)(=O)c2cc3cc(Cl)ccc3s2)C(=O)N1` [Compound 18, 1-(5-chlorobenzo[b]thiophen-2-yl-sulfonyl)hydantoin], for which, in assay [3], the “potency compared with compound 13 and 15” value is “as potent as compound 13 and 15”; the negative logarithm of the IC50 (pIC50) is 6.62.

As for `O=C1CN(S(=O)(=O)c2nc3ccccc3s2)C(=O)N1` [Compound 22, 1-(benzothiazol-2-ylsulfonyl)hydantoin], the inhibition in vivo at 100 mg/kg in assay [2] is 15%. In assay [3], this compound gave a pIC50 of 6.47.

For `O=C1CN(S(=O)(=O)c2ccc3oc(=O)ccc3c2)C(=O)N1` [Compound 23, 1-(coumarin-6-ylsulfonyl)hydantoin], in assay [3], the “potency compared with compound 13 and 15” value was “as potent as compound 13 and 15”; the negative logarithm of the IC50 (pIC50) was 6.66.

As to `O=C1CN(S(=O)(=O)c2cc(Br)c(Br)s2)C(=O)N1` [Compound 25, 1-(4,5-dibromothiophen-2-ylsulfonyl)hydantoin], in assay [3], the pIC50 is 6.59.

Consider `O=C1CN(S(=O)(=O)c2cc3ccc(Cl)cc3s2)C(=O)N1` [Compound 26, 1-(6-chlorobenzo[b]thiophen-2-yl-sulfonyl)hydantoin], for which the inhibition in vivo at 100 mg/kg in assay [2] amounted to 33.1%. In addition, the negative-log IC50 (pIC50) in assay [3] was 6.57.

The compound `O=C1CN(S(=O)(=O)c2cc3cccc(Cl)c3s2)C(=O)N1` [Compound 27, 1-(7-chlorobenzo[b]thiophen-2-yl-sulfonyl)hydantoin] had a pIC50 in assay [3] of 6.72.

In assay [3], `CC(C)c1c(S(=O)(=O)N2CC(=O)NC2=O)sc2ccccc12` [Compound 28, 1-(3-isopropylbenzo[b]thiophen-2-yl-sulfonyl)hydantoin] showed a pIC50 of 6.85.

In turn, `O=C1CN(S(=O)(=O)c2sc3ccccc3c2C(F)(F)F)C(=O)N1` [Compound 29, 1-(3-trifluoromethylbenzo[b]thiophen-2-ylsulfonyl)hydantoin] showed a negative-log IC50 (pIC50) in assay [3] of 6.89.

On to `O=C1CN(S(=O)(=O)c2sc3ccccc3c2Br)C(=O)N1` [Compound 30, 1-(3-bromobenzo[b]thiophen-2-yl-sulfonyl)hydantoin], for which the pIC50 in assay [3] is 6.92.

In assay [3], `COc1c(S(=O)(=O)N2CC(=O)NC2=O)sc2ccccc12` [Compound 31, 1-(3-methoxybenzo[b]thiophen-2-yl-sulfonyl)hydantoin] had a negative-log IC50 (pIC50) of 6.57.

As for `CS(=O)(=O)c1c(S(=O)(=O)N2CC(=O)NC2=O)sc2ccccc12` [Compound 32, 1-(3-methylsulfonylbenzo[b]thiophen-2-ylsulfonyl)hydantoin], in assay [3], the negative-log IC50 (pIC50) is 6.42.

For `N#Cc1c(S(=O)(=O)N2CC(=O)NC2=O)sc2ccccc12` [Compound 33, 1-(3-cyanobenzo[b]thiophen-2-yl-sulfonyl)hydantoin], in assay [3], the pIC50 is 6.72.

As to `O=C1CN(S(=O)(=O)c2sc3c(F)cccc3c2Br)C(=O)N1` [Compound 34, 1-(3-bromo-7-fluorobenzo[b]thiophen-2-ylsulfonyl)hydantoin], in assay [2], the inhibition in vivo at 100 mg/kg stood at 13.2%. In assay [3], this compound gave a pIC50 of 7.07.

In the case of `O=C1CN(S(=O)(=O)c2c(Cl)sc3ccccc23)C(=O)N1` [Compound 35, 1-(2-chlorobenzo[b]thiophen-3-yl-sulfonyl)hydantoin], the inhibition in vivo at 100 mg/kg in assay [2] came to 14%. In assay [3], this compound had a pIC50 of 6.52.

In assay [3], `O=C1CN(S(=O)(=O)c2cc3c(I)cccc3o2)C(=O)N1` [Compound 36, 1-(4-iodobenzo[b]furan-2-ylsulfonyl)hydantoin] gave a pIC50 of 6.62.

For the compound `O=C1CN(S(=O)(=O)c2cc3c(Cl)cc(Cl)cc3o2)C(=O)N1` [Compound 37, 1-(4,6-dichlorobenzo[b]furan-2-yl-sulfonyl)hydantoin], the inhibition in vivo at 100 mg/kg in assay [2] worked out at 14.5%. In assay [3], this compound had a pIC50 of 6.77.

Turning to `O=C1CN(S(=O)(=O)c2cc3cc(F)ccc3s2)C(=O)N1` [Compound 39, 1-(5-fluorobenzo[b]thiophen-2-yl-sulfonyl)hydantoin], in assay [2], the inhibition in vivo at 100 mg/kg was determined as 16%. Besides, the negative logarithm of the IC50 (pIC50) in assay [3] was 6.49.

`O=C1CN(S(=O)(=O)c2nsc3ccccc23)C(=O)N1` [Compound 41, 1-(benzo[b]isothiazol-3-ylsulfonyl)hydantoin]: the inhibition in vivo at 100 mg/kg in assay [2] was determined as 23.6%. In assay [3], this compound gave a pIC50 of 6.33.

As for `O=C1CN(S(=O)(=O)c2cc3cc([N+](=O)[O-])ccc3s2)C(=O)N1` [Compound 42, 1-(5-nitrobenzo[b]thiophen-2-yl-sulfonyl)hydantoin], the negative logarithm of the IC50 (pIC50) in assay [3] is 6.57.

In assay [3], `O=C1CN(S(=O)(=O)c2cc3cc(C(=O)O)ccc3s2)C(=O)N1` [Compound 43, 1-(5-carboxybenzo[b]thiophen-2-yl-sulfonyl)hydantoin] showed a pIC50 of 6.40.

As for `O=C1CN(S(=O)(=O)c2oc3cc(Cl)cc(Cl)c3c2Br)C(=O)N1` [Compound 46, 1-(3-bromo-4,6-dichlorobenzo[b]furan-2-ylsulfonyl)hydantoin], in assay [3], the pIC50 was 7.27.

With `O=C1CN(S(=O)(=O)c2cc3cccc(F)c3o2)C(=O)N1` [Compound 48, 1-(7-fluorobenzo[b]furan-2-ylsulfonyl)hydantoin], in assay [2], the inhibition in vivo at 100 mg/kg was found to be 45.9%.

As for `O=C1CN(S(=O)(=O)c2oc3c(F)cccc3c2Br)C(=O)N1` [Compound 49, 1-(3-bromo-7-fluorobenzo[b]furan-2-yl-sulfonyl)hydantoin], in assay [2], the inhibition in vivo at 100 mg/kg turned out to be 49.2%.

For the compound `O=C1CN(S(=O)(=O)c2ccc3ccccc3c2F)C(=O)N1` [Compound 50, 1-(1-fluoronaphthalen-2-ylsulfonyl)hydantoin], the inhibition in vivo at 100 mg/kg in assay [2] is 48.8%.

Take `O=C1CN(S(=O)(=O)c2cc3c(Br)cccc3o2)C(=O)N1` [Compound 51, 1-(4-bromobenzo[b]furan-2-ylsulfonyl)hydantoin]: the inhibition in vivo at 100 mg/kg in assay [2] came out at 11%.

With `O=C1CN(S(=O)(=O)c2cc3ccc(Br)cc3o2)C(=O)N1` [Compound 52, 1-(6-bromobenzo[b]furan-2-ylsulfonyl)hydantoin], the inhibition in vivo at 100 mg/kg in assay [2] stood at 29%.

In the case of `O=C1CN(S(=O)(=O)c2oc3ccccc3c2I)C(=O)N1` [Compound 53, 1-(3-iodobenzo[b]furan-2-ylsulfonyl)hydantoin], the inhibition in vivo at 100 mg/kg in assay [2] amounted to 19%.

For the compound `O=C1CN(S(=O)(=O)c2oc3cc(Br)ccc3c2Br)C(=O)N1` [Compound 54, 1-(3,6-dibromobenzo[b]furan-2-yl-sulfonyl)hydantoin], in assay [2], the inhibition in vivo at 100 mg/kg was determined as 29%.

For `O=C1CN(S(=O)(=O)c2ccc3ccccc3c2)C(=O)N1` [Compound A, 1-(naphthalene-2-ylsulfonyl)hydantoin, reference compound], in assay [1], the negative logarithm of the IC50 (pIC50) was 6.18.

The values are drawn from patent publication US5202339A, “Hydantoin derivatives” (Mochida Pharmaceutical Co., Ltd., priority 1987, dated 1993).
